From PubChem BioAssay (NCI)
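The compound was tested at five concentrations on cells cultured in 96-well plates, with a 48-hour exposure period. Definition used: TGI = concentration required for complete inhibition of growth.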

Key:
Assay in all cases: DTP human tumour cell line panel, 48 h
786-0 renal = system: 786-0 renal
A498 renal = system: A498 renal
A549 NSCLC = system: A549 NSCLC
ACHN renal = system: ACHN renal
BT-549 breast = system: BT-549 breast
CAKI-1 renal = system: CAKI-1 renal
CCRF-CEM leukemia = system: CCRF-CEM leukemia
COLO 205 colon = system: COLO 205 colon
DU-145 prostate = system: DU-145 prostate
EKVX NSCLC = system: EKVX NSCLC
HCC-2998 colon = system: HCC-2998 colon
HCT-116 colon = system: HCT-116 colon
HCT-15 colon = system: HCT-15 colon
HL-60(TB) leukemia = system: HL-60(TB) leukemia
HOP-62 NSCLC = system: HOP-62 NSCLC
HOP-92 NSCLC = system: HOP-92 NSCLC
HS 578T breast = system: HS 578T breast
HT29 colon = system: HT29 colon
IGROV1 ovarian = system: IGROV1 ovarian
K-562 leukemia = system: K-562 leukemia
KM12 colon = system: KM12 colon
LOX IMVI melanoma = system: LOX IMVI melanoma
M14 melanoma = system: M14 melanoma
MALME-3M melanoma = system: MALME-3M melanoma
MCF7 breast = system: MCF7 breast
MDA-MB-435 = system: MDA-MB-435
MDA-N = system: MDA-N
MOLT-4 leukemia = system: MOLT-4 leukemia
NCI-H226 lung = system: NCI-H226 lung
NCI-H23 lung = system: NCI-H23 lung
NCI-H460 lung = system: NCI-H460 lung
NCI-H522 lung = system: NCI-H522 lung
NCI/ADR-RES ovarian = system: NCI/ADR-RES ovarian
OVCAR-3 ovarian = system: OVCAR-3 ovarian
OVCAR-4 ovarian = system: OVCAR-4 ovarian
OVCAR-5 ovarian = system: OVCAR-5 ovarian
OVCAR-8 ovarian = system: OVCAR-8 ovarian
PC-3 prostate = system: PC-3 prostate
RPMI-8226 leukemia = system: RPMI-8226 leukemia
RXF 393 renal = system: RXF 393 renal
SF-268 CNS = system: SF-268 CNS
SF-295 CNS = system: SF-295 CNS
SF-539 CNS = system: SF-539 CNS
SK-MEL-2 melanoma = system: SK-MEL-2 melanoma
SK-MEL-28 melanoma = system: SK-MEL-28 melanoma
SK-MEL-5 melanoma = system: SK-MEL-5 melanoma
SK-OV-3 ovarian = system: SK-OV-3 ovarian
SN12C renal = system: SN12C renal
SNB-19 CNS = system: SNB-19 CNS
SNB-75 CNS = system: SNB-75 CNS
SR leukemia = system: SR leukemia
SW-620 colon = system: SW-620 colon
T-47D breast = system: T-47D breast
UACC-257 melanoma = system: UACC-257 melanoma
UACC-62 melanoma = system: UACC-62 melanoma
UO-31 renal = system: UO-31 renal
TK-10 renal = system: TK-10 renal
U251 CNS = system: U251 CNS

For CCC(=O)Nc1ccc(NS(=O)(=O)c2ccc(Cl)cc2)cc1, which TGI (786-0 renal) is on record?
The TGI was over 100 µM.

And the TGI (A498 renal)?
Its TGI is over 100 µM.

What about the TGI (A549 NSCLC) of the same molecule?
Its TGI is over 100 µM.

What about the TGI (ACHN renal) of the same molecule?
Its TGI is over 100 µM.

What about the TGI (BT-549 breast) of the same molecule?
Its TGI is over 100 µM.

What about the TGI (CAKI-1 renal) of the same molecule?
Its TGI is over 100 µM.

And the TGI (CCRF-CEM leukemia)?
Its TGI is over 100 µM.

And the TGI (COLO 205 colon)?
The TGI was over 100 µM.

What about the TGI (DU-145 prostate) of the same molecule?
Its TGI is over 100 µM.

What about the TGI (EKVX NSCLC) of the same molecule?
The TGI was over 100 µM.

What about the TGI (HCC-2998 colon) of the same molecule?
The TGI was over 100 µM.

What about the TGI (HCT-116 colon) of the same molecule?
Its TGI is over 100 µM.

And the TGI (HCT-15 colon)?
The TGI was over 100 µM.

What about the TGI (HL-60(TB) leukemia) of the same molecule?
The TGI was over 100 µM.

What about the TGI (HOP-62 NSCLC) of the same molecule?
Its TGI is over 100 µM.

What about the TGI (HOP-92 NSCLC) of the same molecule?
The TGI was over 100 µM.

What about the TGI (HS 578T breast) of the same molecule?
Its TGI is over 100 µM.

And the TGI (HT29 colon)?
Its TGI is over 100 µM.

And the TGI (IGROV1 ovarian)?
Its TGI is over 100 µM.

What about the TGI (K-562 leukemia) of the same molecule?
Its TGI is over 100 µM.

And the TGI (KM12 colon)?
The TGI was over 100 µM.

And the TGI (LOX IMVI melanoma)?
Its TGI is over 100 µM.

And the TGI (M14 melanoma)?
The TGI was over 100 µM.

What about the TGI (MALME-3M melanoma) of the same molecule?
The TGI was over 100 µM.

And the TGI (MCF7 breast)?
The TGI was over 100 µM.

And the TGI (MDA-MB-435)?
The TGI was over 100 µM.

What about the TGI (MDA-N) of the same molecule?
Its TGI is over 100 µM.

What about the TGI (MOLT-4 leukemia) of the same molecule?
Its TGI is over 100 µM.

What about the TGI (NCI-H226 lung) of the same molecule?
The TGI was over 100 µM.

And the TGI (NCI-H23 lung)?
The TGI was over 100 µM.

What about the TGI (NCI-H460 lung) of the same molecule?
Its TGI is over 100 µM.

What about the TGI (NCI-H522 lung) of the same molecule?
Its TGI is over 100 µM.

And the TGI (NCI/ADR-RES ovarian)?
Its TGI is over 100 µM.

What about the TGI (OVCAR-3 ovarian) of the same molecule?
The TGI was over 100 µM.

What about the TGI (OVCAR-4 ovarian) of the same molecule?
Its TGI is over 100 µM.

What about the TGI (OVCAR-5 ovarian) of the same molecule?
Its TGI is over 100 µM.

What about the TGI (OVCAR-8 ovarian) of the same molecule?
Its TGI is over 100 µM.

And the TGI (PC-3 prostate)?
Its TGI is over 100 µM.

And the TGI (RPMI-8226 leukemia)?
The TGI was 54.3 µM.

And the TGI (RXF 393 renal)?
Its TGI is over 100 µM.

What about the TGI (SF-268 CNS) of the same molecule?
Its TGI is over 100 µM.

What about the TGI (SF-295 CNS) of the same molecule?
The TGI was over 100 µM.

What about the TGI (SF-539 CNS) of the same molecule?
Its TGI is over 100 µM.

And the TGI (SK-MEL-2 melanoma)?
Its TGI is over 100 µM.

What about the TGI (SK-MEL-28 melanoma) of the same molecule?
Its TGI is over 100 µM.

What about the TGI (SK-MEL-5 melanoma) of the same molecule?
Its TGI is over 100 µM.

What about the TGI (SK-OV-3 ovarian) of the same molecule?
The TGI was over 100 µM.

And the TGI (SN12C renal)?
The TGI was over 100 µM.

And the TGI (SNB-19 CNS)?
The TGI was over 100 µM.

What about the TGI (SNB-75 CNS) of the same molecule?
The TGI was over 100 µM.

And the TGI (SR leukemia)?
Its TGI is over 100 µM.

And the TGI (SW-620 colon)?
Its TGI is over 100 µM.

What about the TGI (T-47D breast) of the same molecule?
Its TGI is over 100 µM.

What about the TGI (UACC-257 melanoma) of the same molecule?
Its TGI is over 100 µM.

And the TGI (UACC-62 melanoma)?
Its TGI is over 100 µM.

And the TGI (UO-31 renal)?
Its TGI is over 100 µM.

What does the source list for COc1cc(OC)cc(Oc2nc3cc(F)c(F)cc3nc2-c2ccccc2)c1?
TGI (786-0 renal): > 100 µM; TGI (A498 renal): > 100 µM; TGI (A549 NSCLC): > 100 µM; TGI (ACHN renal): > 100 µM; TGI (BT-549 breast): > 100 µM; TGI (CAKI-1 renal): > 100 µM; TGI (CCRF-CEM leukemia): > 100 µM; TGI (COLO 205 colon): > 100 µM; TGI (DU-145 prostate): > 100 µM; TGI (EKVX NSCLC): > 100 µM; TGI (HCT-116 colon): > 100 µM; TGI (HCT-15 colon): > 100 µM; TGI (HL-60(TB) leukemia): > 100 µM; TGI (HOP-62 NSCLC): > 100 µM; TGI (HOP-92 NSCLC): > 100 µM; TGI (HS 578T breast): > 100 µM; TGI (HT29 colon): > 100 µM; TGI (IGROV1 ovarian): > 100 µM; TGI (KM12 colon): > 100 µM; TGI (LOX IMVI melanoma): > 100 µM; TGI (M14 melanoma): > 100 µM; TGI (MALME-3M melanoma): > 100 µM; TGI (MCF7 breast): > 100 µM; TGI (MDA-MB-435): > 100 µM; TGI (MDA-N): > 100 µM; TGI (MOLT-4 leukemia): > 100 µM; TGI (NCI-H226 lung): > 100 µM; TGI (NCI-H23 lung): > 100 µM; TGI (NCI-H460 lung): > 100 µM; TGI (NCI-H522 lung): > 100 µM; TGI (NCI/ADR-RES ovarian): > 100 µM; TGI (OVCAR-3 ovarian): > 100 µM; TGI (OVCAR-4 ovarian): > 100 µM; TGI (OVCAR-5 ovarian): > 100 µM; TGI (OVCAR-8 ovarian): > 100 µM; TGI (PC-3 prostate): > 100 µM; TGI (RXF 393 renal): > 100 µM; TGI (SF-268 CNS): > 100 µM; TGI (SF-295 CNS): > 100 µM; TGI (SF-539 CNS): > 100 µM; TGI (SK-MEL-2 melanoma): > 100 µM; TGI (SK-MEL-28 melanoma): > 100 µM; TGI (SK-MEL-5 melanoma): > 100 µM; TGI (SK-OV-3 ovarian): > 100 µM; TGI (SN12C renal): > 100 µM; TGI (SNB-19 CNS): > 100 µM; TGI (SNB-75 CNS): > 100 µM; TGI (SR leukemia): > 100 µM; TGI (SW-620 colon): > 100 µM; TGI (T-47D breast): > 100 µM; TGI (TK-10 renal): > 100 µM; TGI (U251 CNS): > 100 µM; TGI (UACC-257 melanoma): > 100 µM; TGI (UACC-62 melanoma): > 100 µM; TGI (UO-31 renal): > 100 µM
